Test results as given in patent publication US20100105610A1, “Methods of Inhibiting Tumor Cell Aggressiveness Using the Microenvironment of Human Embryonic Stem Cells” (CHILDREN'S MEMORIAL HOSPITAL, priority 2006, published 2010).

Assays:
Format in all cases: cell-based, human
C8161 cells [1] = assay: Membrane Invasion Culture System (MICS) invasion assay; settings: C8161 cells treated with ALK 4/5/7 inhibitor
Source text: Bars represent the mean, normalized, invasion indices±standard deviations.
The aggressiveness of tumor cells is correlated with their ability to invade through the extracellular matrix; thus, the effect of hESC microenvironments on melanoma cell invasion was investigated.
The Membrane Invasion Culture System (MICS) chamber is used to evaluate the degree of tumor cell invasion through matrices in vitro (both stimulated and unstimulated) as described previously.

Nodal = Nodal protein expression, Western blot
Method: (§1) Protein lysates were prepared and quantified as previously described in Hess et al., 2001, Cancer Res. 61:3250-3255. Equal amounts of protein were separated by SDS-polyacrylamide gel electrophoresis under reducing conditions, and the resolved proteins were transferred onto Immobilon-P membranes (Millipore Corp., Bedford, Mass.). Membranes were blocked in 1% TBS, 0.1% Tween 20 (TBS-T) and 5% dry milk powder or 3% gelatin (for Nodal Westerns). Blots were incubated with anti-Nodal or anti-Lefty antibodies (Polyclonal rabbit anti-Nodal (H-110) 1:500 Santa Cruz Biotechnology, Santa Cruz, Calif.; Polyclonal goat anti-Lefty 1:500 R&D Systems, Minneapolis, Minn.), washed in TBS-T, and incubated with the appropriate horseradish peroxidase-labeled secondary antibody. Secondary antibodies were detected by enhanced chemiluminescence (Super Signal; Pierce, Rockford, Ill.) and exposure to autoradiography film (Molecular Technologies, St Louis, Mo.). Nodal protein was detected as two major bands at ˜48 and ˜35 kDa representing precursor and pro-Nodal respectively. Nodal often appeared as multiple bands, likely due to degradation of protein modifications. All experiments were done at least three times.
Conditioned matrices were prepared using hESCs, melanocytes, myoepithelial cells, amniotic fluid derived stem cells, or trophoblast cells on growth factor-reduced Matrigel (14 mg/mL; BD Biosciences) as previously described. Postovit et al., 2006, Stem Cells 24: 501-505. In all cases, cells were 80-100% confluent during the conditioning of the matrix. Alternatively, hESC-derived Lefty protein was seeded into Matrigel prior to polymerization. Human melanoma (C8161) or breast carcinoma (MDA-MB-231) cells, 2.5×10^5 cells/6-well dish, were subsequently exposed to this preconditioned matrix for 3 to 4 days.
as §1, with “primary antibody (Table 2),” for “anti-Nodal or anti-Lefty antibodies (Polyclonal rabbit anti-Nodal (H-110) 1:500 Santa Cruz Biotechnology, Santa Cruz, Calif.; Polyclonal goat anti-Lefty 1:500 R&D Systems, Minneapolis, Minn.),”, “TBS-T or TBS-T containing 0.5M NaCl for the Nodal Westerns,” for “TBS-T,”, “Nodal often appeared as multiple bands, likely due to degradation of protein modifications. All experiments were done at least three times.” left out

VE-Cadherin, Keratin 18 = assay: Western blot of vasculogenic mimicry plasticity biomarkers in C8161 cells; settings: C8161 cells on 3-D collagen I matrices for 6 days
Method: (A) Western blot analyses of Nodal, phosphorylated SMAD-2, total SMAD 2/3, and Actin in C8161 cells 48 hours after administration of either vehicle or an ALK 4/5/7 inhibitor (SB431542, 1 μM, 10 μM). […] (B) Western blot analyses of Nodal, Tyrosinase and Actin in C8161 cells 24 hours after the administration of either vehicle or different concentrations of ALK inhibitor while (C) is a Western analyses for VE-Cadherin, Keratin 18 and Actin in C8161 cells cultured on 3-D collagen I matrices for 6 days in the presence of vehicle or different concentrations of ALK inhibitor.

C8161 cells [2] = assay: Vasculogenic mimicry of C8161 cells; settings: C8161 cells treated with ALK 4/5/7 inhibitor
Notch 1, 2 and 4 = assay: Notch expression, Western blot in C8161 cells
Source text: Western blot analysis of C8161 cells 72 hrs following the administration of siRNA. […] Western blot analysis of Notch 1, 2 and 4 in C8161 cells treated with the Nodal inhibitor SB431542.

Lefty = Lefty knockdown in hESCs with FITC-tagged Morpholinos (microscopy, Western blot)
Source text: Cancer cells were also exposed to Matrigel conditioned by hESCs in which Lefty protein expression was knocked down with FITC-tagged Morpholino oligonucleotides specific for Lefty-A and Lefty-B (MO^LEFTY). […] The expression of Oct-3/4 and Nanog, representative of hESC pluripotency, was not affected during this time, and the morphology of the hESC colonies was not altered.
Nodal, and Lefty protein expression were inhibited using anti-sense Morpholino oligonucleotides (Gene Tools Inc., Philomath, Oreg.). The Morpholino sequences were selected based on manufacturer's recommendations (21-25 mer antisense). Fluoroscein (FITC)-conjugated control (5′-[…]-3′) [SEQ ID NO: 19], Nodal (5′-[…]-3′) [SEQ ID NO: 20], Lefty-A (5′-[…]-3′) [SEQ ID NO: 21], and Lefty-B (5′[…]-3′) [SEQ ID NO: 22]. Morpholinos (20 μM) were delivered using the scrape method. Topczewska et al., 2006. Cancer cells were sorted for FITC and were recovered for 1 day prior to experimentation.

H9 hESCs = assay: hESC pluripotency (Oct-3/4 and Nanog expression, colony morphology); settings: Oct-3/4, Nanog
Source text: (A) An abundance of the Nodal inhibitor Lefty within the hESC conditioned matrices (CMTX). Lefty protein is absent in the C8161 cells within its own conditioned matrix (C8161+CMTX). (B) Immunofluorescence localization of FITC-conjugated anti Lefty Morpholinos (MO^LEFTY) in H9 hESC colonies on Matrigel. (C) Western blot analysis of Lefty protein in H9 hESCs treated with either vehicle (Control), MO^Control (MO Control), or MO^Lefty (MO Lefty). Actin is used as a loading control. (D) Real Time RT-PCR analysis of Oct-3/4 and Nanog expression in H9 hESCs treated with either vehicle (H9), MO^CONTROL (MO Control), or MO^LEFTY (MO Lefty). Gene levels were normalized using 18s and bars represent mean gene expression normalized to H9. (E) Real Time RT-PCR analysis of Nodal mRNA expression in C8161 cells cultured for 3 days on control (unconditioned) Matrigel, Matrigel conditioned by hESCs (H9 CMTX) or Matrigel conditioned by hESCs in which Lefty protein expression was […] with Lefty-specific Morpholinos (H9 CMTX MO Lefty). (F) Western blot analysis of Nodal protein in human metastatic melanoma (C8161) and breast carcinoma (MDA-MB-231) cells exposed for 3 days to either control (unconditioned) Matrigel or to Matrigel seeded with Lefty protein purified from hESCs (H9-derived Lefty). […]

C8161 cells [3] = assay: Anchorage independent growth / soft agar colony formation, C8161; settings: 100 ng/mL
Method: (§2) An in vitro colony forming assay was used to analyze colony-forming ability of poorly aggressive C81-61 cells, aggressive C8161 cells, C8161 cells treated with MONodal and C8161 cells treated with MONodal and rescued with recombinant Nodal (100 ng/mL). The assay was conducted using 50,000 cells suspended in 0.35% agarose in RPMI containing 10% serum, which were plated into 6-well dishes on 0.5% agar in the same medium. Colonies grew, and pictures were taken at day 7. After 2 weeks, colonies were stained with Crystal Violet and counted.
(§3) Clonogenicity of cells are assessed as previously described. Hamburger, A. W., and Salmon, S. E., 1977, Science 197:461-463. Each parameter is tested in triplicate for clone formation in soft agar. Briefly, […] are plated in 60 mm Petri dishes in complete medium placed over the soft agar. On specific days after the cells are plated, phase contrast images of the colonies are taken using a Zeiss Axiovert 25 with an Hitachi HCV-20 color camera.
(§4) Anchorage independent growth assays were conducted as previously described. Topczewska et al., 2006, Nat. Med. 12: 925-932.

MDA-MB-231 cells = assay: Anchorage independent growth / soft agar colony formation, MDA-MB-231; settings: 100 ng/mL
Method: as §3, §4

C81-61 cells = assay: Soft agar colony formation, C81-61; settings: C81-61 cell line
Method: as §2, §3

NC(=O)c1ccc(-c2nc(-c3ccc4c(c3)OCO4)c(-c3ccccn3)[nH]2)cc1 [SB431542]
invasive ability (C8161 cells [1]): reduction
Nodal expression (Nodal; C8161 cells, 1 μM, 10 μM, 48 hours): down-regulation
expression of vasculogenic mimicry plasticity biomarkers (VE-Cadherin, Keratin 18): reduction
vasculogenic mimicry (C8161 cells [2]): abrogation
Notch expression (Notch 1, 2 and 4): relatively unaffected

MO^LEFTY: FITC-tagged Morpholino oligonucleotides specific for Lefty-A and Lefty-B (SEQ ID NO: 21, 22) (chain 1 GCCACATGGTGCTGCCCTGGG; chain 2 CTGCATGGTGCTGCCCTGGAGGA; all phosphorodiamidate morpholino (PMO); FITC (fluorescein) conjugated, position not given here)
Lefty protein expression in hESCs (Lefty; H9 hESCs, Western blot, for up to 3 days): efficiently knocked down
hESC colonies in which the fluorescently-tagged Morpholinos could be detected (Lefty; microscopy of treated hESC colonies): over 75%
stem cell differentiation (H9 hESCs): did not induce stem cell differentiation

B1: recombinant Nodal: recombinant Nodal (R&D Systems) (protein, UniProt Q96S42 238-347, looked up)
Nodal homolog: HHLPDRSQLCRKVKFQVDFNLIGWGSWIIYPKQYNAYRCEGECPNPVGEEFHPTNHAYIQSLLKRYQPHRVPSTCCAPVKTKPLSMLYVDNGRVLLDHHKDMIVEECGCL
rescue of inhibition of in vitro clonogenicity (C8161 cells [3]; C8161 cells exposed to H9 CMTX): partially rescued
rescue of inhibition of in vitro clonogenicity (C8161 cells [3]; C8161 cells exposed to H9 Lefty-containing matrix): completely rescued
rescue of reduced colony formation (C8161 cells [3]; C8161 cells treated with MONodal): rescued
rescue of inhibition of in vitro clonogenicity (MDA-MB-231 cells; MDA-MB-231 cells exposed to H9 CMTX): partially rescued
rescue of inhibition of in vitro clonogenicity (MDA-MB-231 cells; MDA-MB-231 cells exposed to H9 Lefty-containing matrix): completely rescued
colony formation (C81-61 cells): did not induce colony formation

B2: rLefty: recombinant Lefty-B (R&D Systems) (protein, UniProt O75610 77-366, looked up)
Left-right determination …: RFSQSFREVAGRFLALEASTHLLVFGMEQRLPPNSELVQAVLRLFQEPVPKAALHRHGRLSPRSARARVTVEWLRVRDDGSNRTSLIDSRLVSVHESGWKAFDVTEAVNFWQQLSRPRQPLLLQVSVQREHLGPLASGAHKLVRFASQGAPAGLGEPQLELHTLDLGDYGAQGDCDPEAPMTEGTRCCRQEMYIDLQGMKWAENWVLEPPGFLAYECVGTCRQPPEALAFKWPFLGPRQCIASETDSLPMIVSIKEGGRTRPQVVSLPNMRVQKCSCASDGALVPRRLQP
dose needed to inhibit Nodal protein relative to hESC counterpart (Nodal; C8161 cells): higher doses
Nodal expression (Nodal; C8161 cells exposed 48 hrs to 0-1000 ng/mL): reduces
